For 2 molecules, Ki results are on record in BindingDB's records for doi:10.1002/cbic.201700052 (University of Illinois, 2017).

Common to all, as to experiment: In Silico Screening
For assay [1], the target named is T1, 4-hydroxy-3-methylbut-2-enyl diphosphate reductase (Escherichia coli (strain K12), UniProt P62623).
T1 sequence (P62623 whole entry): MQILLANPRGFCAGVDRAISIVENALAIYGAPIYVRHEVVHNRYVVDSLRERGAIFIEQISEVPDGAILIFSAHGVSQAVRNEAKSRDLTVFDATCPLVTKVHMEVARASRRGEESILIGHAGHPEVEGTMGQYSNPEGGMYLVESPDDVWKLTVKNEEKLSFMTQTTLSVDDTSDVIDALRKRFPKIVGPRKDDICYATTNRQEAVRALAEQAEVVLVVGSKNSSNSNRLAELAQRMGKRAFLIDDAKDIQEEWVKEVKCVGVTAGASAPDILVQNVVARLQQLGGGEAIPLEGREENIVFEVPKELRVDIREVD
From the text: (§1) In order to find new inhibitors, we carried out in silico screening of AaIspH and EcIspH using ZINC and National Cancer Institute (NCI) libraries and Glide docking, essentially as previously described.[Lindert et al., Chem. Biol. Drug Des., 81:742-748]

Assay [2] concerns the target T2, 4-hydroxy-3-methylbut-2-enyl diphosphate reductase (Aquifex aeolicus (strain VF5), UniProt O67625).
T2 sequence (O67625 whole entry): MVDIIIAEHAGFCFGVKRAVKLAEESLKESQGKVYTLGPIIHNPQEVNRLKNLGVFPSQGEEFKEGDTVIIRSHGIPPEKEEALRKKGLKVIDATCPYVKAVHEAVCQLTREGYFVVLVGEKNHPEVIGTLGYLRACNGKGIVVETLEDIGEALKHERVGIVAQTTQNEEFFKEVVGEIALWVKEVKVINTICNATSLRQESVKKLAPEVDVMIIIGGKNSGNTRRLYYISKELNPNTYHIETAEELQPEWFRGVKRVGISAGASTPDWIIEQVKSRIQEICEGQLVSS
From the text: as §1

Assay [3] concerns the target T3, 4-hydroxy-3-methylbut-2-enyl diphosphate reductase (Pseudomonas aeruginosa (strain ATCC 15692 / PAO1 / 1C / PRS 101 / LMG12228), UniProt Q9HVM7).
T3 sequence (Q9HVM7 whole entry): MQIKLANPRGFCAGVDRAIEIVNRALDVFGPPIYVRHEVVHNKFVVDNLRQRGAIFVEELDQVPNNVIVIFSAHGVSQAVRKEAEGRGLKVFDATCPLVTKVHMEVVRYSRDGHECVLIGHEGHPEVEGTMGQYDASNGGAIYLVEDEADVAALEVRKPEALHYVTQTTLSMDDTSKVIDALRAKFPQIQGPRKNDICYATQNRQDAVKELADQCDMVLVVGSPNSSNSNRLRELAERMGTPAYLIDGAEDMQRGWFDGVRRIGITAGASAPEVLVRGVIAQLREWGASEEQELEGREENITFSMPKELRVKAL
From the text: as §1

In the case of `Nc1ccc2c(c1)CC1(C(=O)NC(=O)NC1=O)C1CN(Cc3ccccc3)CCN21` (stereo not drawn) [8-Amino-3-benzyl-2,3,4,4 a-tetrahydro-1,2'H,6H-spiro[pyrazino[1,2-a]quinoline-5,5'-pyrimidine]-2',4',6'(1'H,3'H)-trione], the Ki (commonly a measure of affinity in units of concentration, obtained from inhibition or displacement) in assay [1] was 3 µM; in assay [2], 0.7 µM. In assay [3], `CCN1CCN2c3ccc(N)cc3CC3(C(=O)NC(=O)NC3=O)C2C1` (stereo not drawn) [IspH inhibitor, 8] yielded a Ki of 0.5 µM.
